# Key:
# [1] = tested on: P. falciparum 3D7 trophozoites; experiment: Metabolomic fingerprint profiling LC-MS; assay type: cell-based, Plasmodium falciparum; parameters: UDP-D-glucose / ADP-D-glucose: unit not given here; conditions: for Acetyllysine / N-acetyl-L-ornithine / N-carbamoyl-L-aspartate / NADPH / dAMP / dCMP / dTDP / dTMP / dTTP / dihydroorotate / orotate / DLH / DLS/SDL/SID / PD / PEE / PVNF / 3-phosphoglycerate / ADP-D-glucose / ATP / CDP / D-sedoheptulose-1/7-phosphate / FAD / GMP / NAD+ / NADP+ / Octoluse Bisphosphate / Pyroglutamic acid / UDP-D-glucose / UDP-D-glucuronate / UDP-N-acetyl-glucosamine / UDP / UMP / UTP / a-ketoglutarate / citrate/isocitrate / cytidine / dATP / dGMP/AMP / fumarate / glucose-1/6-phosphate / glycerate / guanine / guanosine / hypoxanthine / indole / inosine / nicotinate / ornithine / phosphoenolpyruvate / pyruvate / ribose-phosphate / sarcosine/alanine / sn-glycerol-3-phosphate / succinate/methylmalonic acid / uridine / xanthosine: S2 Table Metabolomics; for Acetyllysine: metabolite Acetyllysine; for N-acetyl-L-ornithine: metabolite N-acetyl-L-ornithine; for N-carbamoyl-L-aspartate: metabolite N-carbamoyl-L-aspartate; for NADPH: metabolite NADPH; for dAMP: metabolite dAMP; for dCMP: metabolite dCMP; for dTDP: metabolite dTDP; for dTMP: metabolite dTMP; for dTTP: metabolite dTTP; for dihydroorotate: metabolite dihydroorotate; for orotate: metabolite orotate; for DLH: peptide DLH; for DLS/SDL/SID: peptide DLS/SDL/SID; for PD: peptide PD; for PEE: peptide PEE; for PVNF: peptide PVNF; for 3-phosphoglycerate: metabolite 3-phosphoglycerate; for ADP-D-glucose: metabolite ADP-D-glucose; for ATP: metabolite ATP; for CDP: metabolite CDP; for CDP / D-sedoheptulose-1/7-phosphate / GMP / Octoluse Bisphosphate / UDP / UMP / UTP / citrate/isocitrate / dGMP/AMP / fumarate / glucose-1/6-phosphate / glycerate / guanine / guanosine / inosine / pyruvate / sarcosine/alanine / succinate/methylmalonic acid / uridine / xanthosine: change in metabolite level after compound treatment; for D-sedoheptulose-1/7-phosphate: metabolite D-sedoheptulose-1/7-phosphate; for FAD: metabolite FAD; for GMP: metabolite GMP; for NAD+: metabolite NAD+; for NADP+: metabolite NADP+; for Octoluse Bisphosphate: metabolite Octoluse Bisphosphate; for Pyroglutamic acid: metabolite Pyroglutamic acid; for UDP-D-glucose: metabolite UDP-D-glucose; for UDP-D-glucuronate: metabolite UDP-D-glucuronate; for UDP-N-acetyl-glucosamine: metabolite UDP-N-acetyl-glucosamine; for UDP: metabolite UDP; for UMP: metabolite UMP; for UTP: metabolite UTP; for a-ketoglutarate: metabolite a-ketoglutarate; for citrate/isocitrate: metabolite citrate/isocitrate; for cytidine: metabolite cytidine; for dATP: metabolite dATP; for dGMP/AMP: metabolite dGMP/AMP; for fumarate: metabolite fumarate; for glucose-1/6-phosphate: metabolite glucose-1/6-phosphate; for glycerate: metabolite glycerate; for guanine: metabolite guanine; for guanosine: metabolite guanosine; for hypoxanthine: metabolite hypoxanthine; for indole: metabolite indole; for inosine: metabolite inosine; for 2_3-Diphosphoglyceric acid / 4-phosphopantothenate / 6-phospho-D-gluconate / FMN / IMP / Pyrophosphate / Sedoheptoluse bisphosphate / cyclic-AMP / glutathione disulfide / lactate / myo-inositol: metabolite level change after treatment; for nicotinate: metabolite nicotinate; for ornithine: metabolite ornithine; for phosphoenolpyruvate: metabolite phosphoenolpyruvate; for pyruvate: metabolite pyruvate; for ribose-phosphate: metabolite ribose-phosphate; for sarcosine/alanine: metabolite sarcosine/alanine; for sn-glycerol-3-phosphate: metabolite sn-glycerol-3-phosphate; for succinate/methylmalonic acid: metabolite succinate/methylmalonic acid; for uridine: metabolite uridine; for xanthosine: metabolite xanthosine
# P. falciparum = experiment: EC50 listed in S2 Table Metabolomics (used to set the concentration tested); assay type: cell-based; conditions: Plasmodium falciparum; EC50 used for Factor_XEC50 in metabolomics; read-out: EC50_nM
smiles,measurement,setting,value
CSC1=NC(=Nc2c(C)cccc2C)C2(CCC(C(C)(C)C)CC2)N1c1ccc(Cl)cc1 (stereo not drawn) [MMV666596],Acetyllysine,[1],0.05532
same,N-acetyl-L-ornithine,[1],0.3033
same,N-carbamoyl-L-aspartate,[1],4.209
same,NADPH,[1],0.4611
same,dAMP,[1],-1.695
same,dCMP,[1],-0.02373
same,dTDP,[1],-0.6033
same,dTMP,[1],-0.6441
same,dTTP,[1],-0.4211
same,dihydroorotate,[1],4.453
same,orotate,[1],-0.2494
same,DLH,[1],0.07485
same,DLS/SDL/SID,[1],0.1058
same,PD,[1],0.3494
same,PEE,[1],0.3362
same,PVNF,[1],-0.2122
same,3-phosphoglycerate,[1],0.06499
same,ADP-D-glucose,[1],0.1455
same,ATP,[1],-0.04037
same,CDP,[1],-0.436
same,D-sedoheptulose-1/7-phosphate,[1],-0.1476
same,FAD,[1],0.02917
same,GMP,[1],-0.07998
same,NAD+,[1],-0.07608
same,NADP+,[1],0.2106
same,Octoluse Bisphosphate,[1],-0.01707
same,Pyroglutamic acid,[1],-0.1892
same,UDP-D-glucose,[1],-0.01772
same,UDP-D-glucuronate,[1],-0.05432
same,UDP-N-acetyl-glucosamine,[1],-0.1657
same,UDP,[1],-0.847
same,UMP,[1],-0.5062
same,UTP,[1],-0.6788
same,a-ketoglutarate,[1],-0.3441
same,citrate/isocitrate,[1],-0.1956
same,cytidine,[1],-0.05016
same,dATP,[1],0.3608
same,dGMP/AMP,[1],-0.2908
same,fumarate,[1],0.4042
same,glucose-1/6-phosphate,[1],-0.3631
same,glycerate,[1],-0.704
same,guanine,[1],-0.05943
same,guanosine,[1],0.2542
same,hypoxanthine,[1],-0.3496
same,indole,[1],-0.1947
same,inosine,[1],-0.267
same,2_3-Diphosphoglyceric acid,[1],0.06366
same,4-phosphopantothenate,[1],-0.3594
same,6-phospho-D-gluconate,[1],0.1204
same,FMN,[1],0.0335
same,IMP,[1],-0.08883
same,Pyrophosphate,[1],0.1408
same,Sedoheptoluse bisphosphate,[1],0.09241
same,cyclic-AMP,[1],-0.008887
same,glutathione disulfide,[1],0.04205
same,lactate,[1],-0.4137
same,myo-inositol,[1],-0.699
same,nicotinate,[1],-0.1654
same,ornithine,[1],0.2004
same,phosphoenolpyruvate,[1],0.0459
same,pyruvate,[1],-0.8143
same,ribose-phosphate,[1],0.02121
same,sarcosine/alanine,[1],-0.1953
same,sn-glycerol-3-phosphate,[1],0.3928
same,succinate/methylmalonic acid,[1],0.09915
same,uridine,[1],-0.4544
same,xanthosine,[1],-0.03694
same,EC50,P. falciparum,135 nM
Cc1ccc(-c2cc3c(SCC(=O)Nc4cc(C(F)(F)F)ccc4Cl)nccn3n2)cc1 [MMV396680],Acetyllysine,[1],-0.4906
same,N-acetyl-L-ornithine,[1],-0.1465
same,N-carbamoyl-L-aspartate,[1],2.456
same,NADPH,[1],0.3651
same,dAMP,[1],-0.4552
same,dCMP,[1],-0.05341
same,dTDP,[1],-1.136
same,dTMP,[1],-1.083
same,dTTP,[1],-1.158
same,dihydroorotate,[1],3.543
same,orotate,[1],-0.9159
same,DLH,[1],-0.3949
same,DLS/SDL/SID,[1],-0.337
same,PD,[1],-0.05706
same,PEE,[1],-0.2567
same,PVNF,[1],-0.5778
same,3-phosphoglycerate,[1],-0.2595
same,ADP-D-glucose,[1],-0.2217
same,ATP,[1],-0.3128
same,CDP,[1],-0.9741
same,D-sedoheptulose-1/7-phosphate,[1],-0.1867
same,FAD,[1],0.01886
same,GMP,[1],0.2283
same,NAD+,[1],0.1566
same,NADP+,[1],-0.1345
same,Octoluse Bisphosphate,[1],-0.3002
same,Pyroglutamic acid,[1],-0.01833
same,UDP-D-glucose,[1],-0.08257
same,UDP-D-glucuronate,[1],-0.2581
same,UDP-N-acetyl-glucosamine,[1],-0.1134
same,UDP,[1],-1.014
same,UMP,[1],-0.7737
same,UTP,[1],-1.292
same,a-ketoglutarate,[1],-0.4564
same,citrate/isocitrate,[1],-0.8044
same,cytidine,[1],0.4371
same,dATP,[1],0.3628
same,dGMP/AMP,[1],-1.368
same,fumarate,[1],-0.8765
same,glucose-1/6-phosphate,[1],0.09137
same,glycerate,[1],-0.2491
same,guanine,[1],0.04089
same,guanosine,[1],-0.01605
same,hypoxanthine,[1],-0.1601
same,indole,[1],-0.003888
same,inosine,[1],-0.03937
same,2_3-Diphosphoglyceric acid,[1],-0.2285
same,4-phosphopantothenate,[1],-0.2363
same,6-phospho-D-gluconate,[1],0
same,FMN,[1],-0.1967
same,IMP,[1],-0.1897
same,Pyrophosphate,[1],0.5607
same,Sedoheptoluse bisphosphate,[1],-0.2656
same,cyclic-AMP,[1],-0.07723
same,glutathione disulfide,[1],-0.04075
same,lactate,[1],-0.4254
same,myo-inositol,[1],-0.7104
same,nicotinate,[1],-0.4764
same,ornithine,[1],-0.2162
same,phosphoenolpyruvate,[1],-0.2321
same,pyruvate,[1],-0.2774
same,ribose-phosphate,[1],-0.04672
same,sarcosine/alanine,[1],-0.2257
same,sn-glycerol-3-phosphate,[1],-0.3003
same,succinate/methylmalonic acid,[1],0.02717
same,uridine,[1],-0.7719
same,xanthosine,[1],-0.1274
same,EC50,P. falciparum,92.8 nM
COc1ccc(NC(=O)C2c3ccccc3C(=O)N(CC(C)C)C2c2cccs2)cc1Cl (stereo not drawn) [MMV000642],Acetyllysine,[1],-5.193
same,N-acetyl-L-ornithine,[1],-3.747
same,N-carbamoyl-L-aspartate,[1],-2.41
same,NADPH,[1],-0.3813
same,dAMP,[1],2.141
same,dCMP,[1],1.187
same,dTDP,[1],1.699
same,dTMP,[1],3.58
same,dTTP,[1],1.5
same,dihydroorotate,[1],-2.555
same,orotate,[1],-0.348
same,DLH,[1],-5.968
same,DLS/SDL/SID,[1],-3.9977
same,PD,[1],-2.5956
same,PEE,[1],-3.5386
same,PVNF,[1],-6.505
same,3-phosphoglycerate,[1],-0.2719
same,ADP-D-glucose,[1],-0.1906
same,ATP,[1],-1.554
same,CDP,[1],-0.7723
same,D-sedoheptulose-1/7-phosphate,[1],-1.211
same,FAD,[1],-1.709
same,GMP,[1],-1.9066
same,NAD+,[1],-0.5171
same,NADP+,[1],-0.1638
same,Octoluse Bisphosphate,[1],-2.57
same,Pyroglutamic acid,[1],0.06474
same,UDP-D-glucose,[1],-0.2074
same,UDP-D-glucuronate,[1],-0.1541
same,UDP-N-acetyl-glucosamine,[1],-0.04904
same,UDP,[1],-1.27
same,UMP,[1],-0.4497
same,UTP,[1],-1.308
same,a-ketoglutarate,[1],-0.0007361
same,citrate/isocitrate,[1],-0.3751
same,cytidine,[1],0.1777
same,dATP,[1],0.01445
same,dGMP/AMP,[1],-0.6011
same,fumarate,[1],-0.3143
same,glucose-1/6-phosphate,[1],-1.542
same,glycerate,[1],-0.9599
same,guanine,[1],0.2177
same,guanosine,[1],0.8357
same,hypoxanthine,[1],-0.2894
same,indole,[1],-0.1989
same,inosine,[1],0.04742
same,2_3-Diphosphoglyceric acid,[1],-1.07
same,4-phosphopantothenate,[1],-0.7331
same,6-phospho-D-gluconate,[1],-0.5035
same,FMN,[1],-0.2051
same,IMP,[1],-0.1621
same,Pyrophosphate,[1],-1.141
same,Sedoheptoluse bisphosphate,[1],-1.388
same,cyclic-AMP,[1],-0.8649
same,glutathione disulfide,[1],-0.7288
same,lactate,[1],-1.097
same,myo-inositol,[1],-1.4412
same,nicotinate,[1],0.5786
same,ornithine,[1],0.1669
same,phosphoenolpyruvate,[1],0.08762
same,pyruvate,[1],-0.8949
same,ribose-phosphate,[1],-0.3617
same,sarcosine/alanine,[1],-1.783
same,sn-glycerol-3-phosphate,[1],1.156
same,succinate/methylmalonic acid,[1],0.05807
same,uridine,[1],1.2
same,xanthosine,[1],-1.585
same,EC50,P. falciparum,20.2 nM
